Laboratory results: patent US6841519B1, “Isoxazoline derivatives and herbicides containing the same as the active ingredient” (Kumiai Chemical Industry Co., Ltd., priority 1999, dated 2005)

Assays:
Type in all cases: in vivo
[1] = test system: Echinochloa crus-galli (L.) Beauv. var. crusgalli (Ec); assay: Test for herbicidal effect by upland foliage treatment (Test Example 3); settings: 100 g/10 a active ingredient, examined at 14th day
Procedure, shortened: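 Potted upland-soil Ec seedlings grown 2 weeks in greenhouse, then foliage-sprayed with water-diluted wettable powder at 100 L per 10 ares, giving 100 g active ingredient per 10 ares. Herbicidal effect scored on a graded standard 14 days after treatment.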

[2] = test system: Polygonum lapathifolium L. subsp. nodosum (Pers.) Kitam. (Po); assay: Test for herbicidal effect to broadleaf weeds by upland field soil treatment (Test Example 6), Po; settings: 25 g/10 a active ingredient, 30th day
Protocol: (§1) Test for herbicidal effect to broadleaf weeds by upland field soil treatment
(§2) An upland field soil was filled in a plastic pot of 80 cm^2. Seeds of Polygonum lapathifolium L. subsp. nodosum (Pers.) Kitam. (Po) and Chenopodium album L. (Ch) were sowed, followed by covering with the same soil. Wettable powders produced in accordance with the Formulation 1 were diluted with water and sprayed uniformly on the soil surface using a small sprayer, […] Then, breeding was made in a greenhouse. At the 30th day from the treatment, the herbicidal effect of each wettable powder was examined in accordance with the standard shown in Table 40.

[3] = test system: Echinochloa oryzicola Vasing. (Eo); assay: Test for herbicidal effect by paddy field soil treatment (Test Example 1); settings: application amount (active ingredient) 100 g/10 a, examined at the 21st day from the treatment, index per Table 40
Procedure, shortened: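 Eo seeds sown in puddled paddy soil under 3 cm water; next day a water-diluted wettable powder was dropped onto the water surface at 100 g active ingredient per 10 ares. Herbicidal effect scored on a standard scale 21 days after treatment, greenhouse-grown.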

[4] = test system: Chenopodium album L. (Ch); assay: Test for herbicidal effect to broadleaf weeds by upland field soil treatment (Test Example 6), Ch; settings: 25 g/10 a active ingredient, 30th day
Protocol: as §1, §2

[5] = test system: Echinochloa crus-galli (L.) Beauv. var. crusgall (Ec); assay: Test for herbicidal effect by upland field soil treatment (Test Example 2), Ec
Procedure, shortened: (§3)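 Echinochloa crus-galli and Setaria viridis were sown in upland field soil and covered, then the soil surface was sprayed with water-diluted wettable powder at 100 g active ingredient per 10 ares (100 liters per 10 ares). Plants were grown in a greenhouse and scored on a standard scale on day 21.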

[6] = test system: Setaria viridis (L.) Beauv. (Se); assay: Test for herbicidal effect by upland field soil treatment (Test Example 2), Se
Procedure, shortened: as §3

[7] = test system: Echinochloa oryzicola Vasing. (Eo); assay: Test for crop selectivity by paddy field soil treatment (Test Example 4), herbicidal effect on Eo; settings: 100 g/10 a active ingredient, 21st day
Procedure, shortened: (§4)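 Puddled paddy soil sown with Eo seeds, two-leaf rice transplanted at 2 cm depth, flooded 3 cm. Next day, wettable powder diluted in water was dropped on the water surface at 100 g a.i. per 10 ares. Herbicidal effect and rice phytotoxicity scored visually 21 days after treatment, greenhouse.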

rice (Or) = assay: Test for crop selectivity by paddy field soil treatment (Test Example 4), phytotoxicity to rice; settings: transplanted two-leaf stage rice, 100 g/10 a active ingredient, 21st day
Procedure, shortened: as §4

[8] = 100 g/10 a active ingredient, examined at 21st day
[9] = application amount (active ingredient) 100 g/10 a, examined at the 21st day from the treatment, index per Table 40

SMILES | Herbicidal effect to Ec [1] | Herbicidal effect to Po [2] | Herbicidal effect to Eo [3] | Herbicidal effect to Ch [4] | Herbicidal effect to Ec [5, 8] | Herbicidal effect to Se [6, 8] | Herbicidal effect to Eo [7] | Phytotoxicity to Or (rice (Or)) | Herbicidal effect to Ec [5, 9] | Herbicidal effect to Se [6, 9]
CC1(C)CC(S(=O)(=O)Cc2c(F)ccc(F)c2F)=NO1 [Compound 1-501] | 5 (A herbicidal effect or phytotoxicity of 90% or more) | 5 (A herbicidal effect or phytotoxicity of 90% or more) | 5 (A herbicidal effect or phytotoxicity of 90% or more) | 5 (A herbicidal effect or phytotoxicity of 90% or more) | 5 (A herbicidal effect or phytotoxicity of 90% or more) | 5 (A herbicidal effect or phytotoxicity of 90% or more) | – | – | – | –
CC12CCCCCC1C(S(=O)(=O)Cc1c(F)cccc1F)=NO2 (stereo not drawn) [Compound 1-556] | 4 (A herbicidal effect or phytotoxicity of 70% to less than 90%) | – | 5 (A herbicidal effect or phytotoxicity of 90% or more) | – | 5 (A herbicidal effect or phytotoxicity of 90% or more) | 4 (A herbicidal effect or phytotoxicity of 70% to less than 90%) | 5 (A herbicidal effect or phytotoxicity of 90% or more) | 0 (A herbicidal effect or phytotoxicity of 0% to less than 10%) | – | –
CCCCOc1cccc(Cl)c1CS(=O)(=O)C1=NOC(C)(C)C1 [Compound 1-574] | 4 (A herbicidal effect or phytotoxicity of 70% to less than 90%) | – | 5 (A herbicidal effect or phytotoxicity of 90% or more) | – | 5 (A herbicidal effect or phytotoxicity of 90% or more) | 5 (A herbicidal effect or phytotoxicity of 90% or more) | 5 (A herbicidal effect or phytotoxicity of 90% or more) | 1 (A herbicidal effect or phytotoxicity of 10% to less than 30%) | – | –
COc1ccc(C(C)C)c(C)c1CS(=O)(=O)C1=NOC(C)(C)C1 [Compound 1-584] | 5 (A herbicidal effect or phytotoxicity of 90% or more) | – | 5 (A herbicidal effect or phytotoxicity of 90% or more) | – | – | – | 5 (A herbicidal effect or phytotoxicity of 90% or more) | 1 (A herbicidal effect or phytotoxicity of 10% to less than 30%) | – | –
CC1(C)CC(S(=O)(=O)Cc2ccccc2Cl)=NO1 [Compound 1-2] | 4 (A herbicidal effect or phytotoxicity of 70% to less than 90%) | – | 5 (A herbicidal effect or phytotoxicity of 90% or more) | 4 (A herbicidal effect or phytotoxicity of 70% to less than 90%) | – | – | – | – | 5 (A herbicidal effect or phytotoxicity of 90% or more) | 5 (A herbicidal effect or phytotoxicity of 90% or more)
CCC1(C)CC(S(=O)(=O)Cc2ccc(C)cc2)=NO1 (stereo not drawn) [Compound 1-203] | 4 (A herbicidal effect or phytotoxicity of 70% to less than 90%) | – | 5 (A herbicidal effect or phytotoxicity of 90% or more) | – | – | – | 5 (A herbicidal effect or phytotoxicity of 90% or more) | 1 (A herbicidal effect or phytotoxicity of 10% to less than 30%) | 5 (A herbicidal effect or phytotoxicity of 90% or more) | 4 (A herbicidal effect or phytotoxicity of 70% to less than 90%)
C=CCOC(=O)c1ccccc1CS(=O)(=O)C1=NOC(C)(C)C1 [Compound 1-599] | 4 (A herbicidal effect or phytotoxicity of 70% to less than 90%) | – | 5 (A herbicidal effect or phytotoxicity of 90% or more) | – | 5 (A herbicidal effect or phytotoxicity of 90% or more) | 5 (A herbicidal effect or phytotoxicity of 90% or more) | 5 (A herbicidal effect or phytotoxicity of 90% or more) | 1 (A herbicidal effect or phytotoxicity of 10% to less than 30%) | – | –
CCC1(C)CC(S(=O)(=O)Cc2cccc(OC)c2)=NO1 (stereo not drawn) [Compound 1-229] | 4 (A herbicidal effect or phytotoxicity of 70% to less than 90%) | – | 5 (A herbicidal effect or phytotoxicity of 90% or more) | – | – | – | 5 (A herbicidal effect or phytotoxicity of 90% or more) | 1 (A herbicidal effect or phytotoxicity of 10% to less than 30%) | 5 (A herbicidal effect or phytotoxicity of 90% or more) | 5 (A herbicidal effect or phytotoxicity of 90% or more)
COC(=O)c1cccc(CS(=O)(=O)C2=NOC(C)(C)C2)c1[N+](=O)[O-] [Compound 1-503] | 4 (A herbicidal effect or phytotoxicity of 70% to less than 90%) | – | 5 (A herbicidal effect or phytotoxicity of 90% or more) | – | 5 (A herbicidal effect or phytotoxicity of 90% or more) | 5 (A herbicidal effect or phytotoxicity of 90% or more) | 5 (A herbicidal effect or phytotoxicity of 90% or more) | 0 (A herbicidal effect or phytotoxicity of 0% to less than 10%) | – | –
CCC(C)OC(=O)c1ccccc1CS(=O)(=O)C1=NOC(C)(C)C1 (stereo not drawn) [Compound 1-597] | – | – | 5 (A herbicidal effect or phytotoxicity of 90% or more) | – | 5 (A herbicidal effect or phytotoxicity of 90% or more) | 4 (A herbicidal effect or phytotoxicity of 70% to less than 90%) | 5 (A herbicidal effect or phytotoxicity of 90% or more) | 1 (A herbicidal effect or phytotoxicity of 10% to less than 30%) | – | –
CC(C)C1(C)CC(S(=O)(=O)Cc2c(F)cccc2F)=NO1 (stereo not drawn) [Compound 1-368] | – | – | 5 (A herbicidal effect or phytotoxicity of 90% or more) | – | – | – | 5 (A herbicidal effect or phytotoxicity of 90% or more) | 1 (A herbicidal effect or phytotoxicity of 10% to less than 30%) | 5 (A herbicidal effect or phytotoxicity of 90% or more) | 4 (A herbicidal effect or phytotoxicity of 70% to less than 90%)
CCC1(C)CC(S(=O)(=O)Cc2cccc([N+](=O)[O-])c2)=NO1 (stereo not drawn) [Compound 1-331] | – | – | 5 (A herbicidal effect or phytotoxicity of 90% or more) | – | – | – | 5 (A herbicidal effect or phytotoxicity of 90% or more) | 0 (A herbicidal effect or phytotoxicity of 0% to less than 10%) | 5 (A herbicidal effect or phytotoxicity of 90% or more) | 5 (A herbicidal effect or phytotoxicity of 90% or more)
O=S(=O)(Cc1c(F)cccc1F)C1=NOC(C2CC2)(C2CC2)C1 [Compound 1-520] | 4 (A herbicidal effect or phytotoxicity of 70% to less than 90%) | – | 5 (A herbicidal effect or phytotoxicity of 90% or more) | – | 5 (A herbicidal effect or phytotoxicity of 90% or more) | 5 (A herbicidal effect or phytotoxicity of 90% or more) | 5 (A herbicidal effect or phytotoxicity of 90% or more) | 1 (A herbicidal effect or phytotoxicity of 10% to less than 30%) | – | –
COC(=O)c1ccccc1CS(=O)(=O)C1=NOC(C)(C)C1 [Compound 1-145] | 4 (A herbicidal effect or phytotoxicity of 70% to less than 90%) | – | 5 (A herbicidal effect or phytotoxicity of 90% or more) | – | – | – | 5 (A herbicidal effect or phytotoxicity of 90% or more) | 0 (A herbicidal effect or phytotoxicity of 0% to less than 10%) | 5 (A herbicidal effect or phytotoxicity of 90% or more) | 5 (A herbicidal effect or phytotoxicity of 90% or more)
